Earlier results as cited in US20130315977A1, “TRANSDERMAL PATCH” (priority 2011, published 2013).

How the values were obtained:
[1] = target: dopamine D2 (Homo sapiens, UniProt P14416); details: as compared to haloperidol
[2] = system: serotonin 5-HT2 receptor; details: as compared to haloperidol

Sequence of dopamine D2 (P14416 whole entry): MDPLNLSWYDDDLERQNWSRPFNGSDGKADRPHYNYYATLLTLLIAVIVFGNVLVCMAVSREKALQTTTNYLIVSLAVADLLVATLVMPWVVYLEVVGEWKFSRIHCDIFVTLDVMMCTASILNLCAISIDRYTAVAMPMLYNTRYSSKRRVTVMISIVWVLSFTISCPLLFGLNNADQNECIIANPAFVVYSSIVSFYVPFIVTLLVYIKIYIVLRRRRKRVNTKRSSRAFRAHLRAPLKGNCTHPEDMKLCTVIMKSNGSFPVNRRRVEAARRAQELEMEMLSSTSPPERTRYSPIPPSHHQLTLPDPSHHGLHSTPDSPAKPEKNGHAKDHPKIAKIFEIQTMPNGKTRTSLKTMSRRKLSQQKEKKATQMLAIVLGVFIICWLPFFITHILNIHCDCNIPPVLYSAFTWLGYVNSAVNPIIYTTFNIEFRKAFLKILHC

- affinity for dopamine D2 [1]: high affinity
- affinity for serotonin 5-HT2 receptor [2]: high affinity
SMILES: CCN1CCN(c2cc(-c3ccc(F)cc3)c3c(n2)CCCCCC3)CC1 [Blonanserin, 2-(4-ethyl-1-piperazinyl)-4-(4-fluorophenyl)-5,6,7,8,9,10-hexahydrocycloocta[b]pyridine]
